For series [1], the system named is advanced glycation products from bovine serum albumin and glucose. Briefly: Antiglycating activity (AGE fluorescence, bovine serum albumin and glucose). The class given is biochemical. Particulars: BSA 1 mg/ml, glucose 0.36 M, 60 °C, 24 hrs; read-out: IC50 of formation of advanced glycation products. As for the experimental part:
The glycation reaction was modeled using 1 mg/ml bovine serum albumin (Chemmed, Russia) and 0.36 M glucose (Vekton, Russia) in 50 mM phosphate buffer solution (PBS, pH 7.4) at 60 °C. After 24 hrs, albumin was precipitated using trichloroacetic acid (10% final concentration) and centrifugation (15 000 rpm, 4 min). The supernatant was removed by aspiration, and the residue was dissolved in 50 mM PBS (pH 10.5). Aliquots of 300 µl were transferred to a black flat-bottom 96-well microplate. AGE fluorescence was registered using Infinite M200 Pro (Tecan, Austria) microplate reader at excitation/emission wavelengths of 370/440 nm. Signals were normalized using blank samples containing BSA and the test compound in the appropriate concentration without the glucose. When normalized, the activity is expressed as the AGE fluorescence coefficient, determined by the formula: Flu=10^log10A-log10B-1, where A and B correspond to the absolute fluorescence values of the glucose-containing and mean glucose-free sample.
Activity percentage was calculated using the formula: A%=1-FluSample/FluControl×100%, where Flu(Sample) and Flu(Control) correspond to the normalized fluorescence coefficients of experimental and control samples. Experiments were run in 5 independent replicates.

The test system of a further series is rabbit platelets. Briefly: ADP-induced platelet aggregation assay in rabbit platelet-rich plasma. In kind it is cell-based. Particulars: 100 μM, ADP 5 μM. As for the experimental part:
Functional activity of platelets was determined on a two-channel laser analyzer of platelet aggregation "BIOLA-220 LA" (Russia) as described previously. The experiments were carried out on 6 male rabbits weighing 3.5–4 kg. To prepare platelet-rich plasma (PRP) venous blood was taken from the ear marginal vein of a rabbit, stabilized with a 3.8% sodium citrate solution in a ratio of 9:1 and centrifuged for 10 min at 1500 rpm. PRP (300 μL) and a solution of the test compound at a concentration of 100 μM were sequentially introduced into the cell of the aggregometer. The samples were incubated in thermostated cells of the aggregometer at 37 °C for 5 min. To induce aggregation adenosine-5-diphosphoric acid (ADP, Sigma, USA) at a final concentration of 5 μM, was added to the cuvette. Acetylsalicylic acid (Shandong Xinhua Pharmaceutical Co., Ltd., China) was used as a reference drug. Experiments were run in 5 independent replicates.

In another series the target is T1, NHE-1 (Oryctolagus cuniculus, UniProt P23791).
T1 construct: endogenous in cells; host or cells: rabbit platelets in platelet-rich plasma (male rabbits)
Kind of series: NHE-1 inhibition assay on rabbit platelets (platelet shape change after acidification with sodium propionate, laser aggregometer). The class given is cell-based. Particulars: 10 nM, rabbit platelet-rich plasma, decimal commas; read-out: NHE-1 inhibition at 10 nM, m ± SD, n = 6 (%). As for the experimental part: Evaluation of NHE-1 inhibition was carried out on rabbit platelets by the known method[39],[40]. The experiments were carried out on 15 male rabbits weighing 3.0-4.0 kg. Platelet-rich plasma (PRP) was obtained by centrifuging blood with 3.8% sodium citrate (1:10) at 1000 rpm for 12 min (Multi centrifuge CM 6M, Latvia). Platelet shapeshifting due to acidification was followed with a laser aggregometer BIOLA-220 LA (Russia). Test compounds (10 μl, 10 nM final concentration) were added to 200 μl of PRP 5 min in a cuvette before the addition of sodium propionate solution, incubated with constant stirring using a magnetic stirrer (800 rpm, 37 °C). To control samples for NHE-1 activation, a buffer solution containing sodium propionate was added to 200 μL of PRP (600 μL, 135 mM sodium propionate, 20 mM HEPES, 1 mM CaCI2, 1 mM MgCI2, 10 mM glucose; pH 6.7). The change in light transmission at pH 7.4, 37 °C was monitored in a Krebs solution (600 μL, 120 mM NaCl, 4.8 mM KCl, 1.2 mM KH2PO4, 2.5 mM MgSO4, 25 mM NaHCO3, 2.6 mM CaCl2, 5.4 mM glucose; pH 7.4). Test compounds were added to a final concentration of 10 nM to the cuvette into 200 μl of PRP 5 min before adding the sodium propionate solution, incubated with constant stirring using a magnetic stirrer (800 rpm, 37 °C). NHE-1 inhibitors zoniporide, rimeporide, amiloride were used as reference drugs. Assays were run in 6 independent series.

The subject of series [2] is primary peritoneal macrophages of C57BL/6J mice. Kind of series: Cytotoxicity study (LDH activity in the medium) in peritoneal macrophages. Particulars: 100 μM, peritoneal macrophages. In kind it is cell-based. As to the method:
(§1) Peritoneal macrophages (PM) were isolated from the peritoneal exudate of 30 male C57bl/6j mice. To accumulate PM, 1 ml of 3% peptone solution was injected intraperitoneally. After 3 days the mice were euthanized by cervical dislocation. Cells of peritoneal exudate were obtained by aseptically washing the abdominal cavity with 5 ml of sterile Hanks’s solution (+ 4-6 °C) without calcium and magnesium ions. The total number and viability of cells were assessed in a Goryaev counting chamber (Russia) with a 0.4% trypan blue staining (Sigma-Aldrich, USA). The cell concentration was adjusted to 1.0×10^6 cells/ml in DMEM (Gibco) supplemented with 2 mM L-glutamine (Gibco), 10% heat-inactivated fetal bovine serum (BioClot, Germany), 100 U/ml penicillin and […] streptomycin (Gibco) and plated 200 μl/well in 96-well transparent plates (SPL Life Sciences Co., Ltd., Korea). It was left for 2 h at 37°C in a humidified atmosphere with 5% CO2, after which the wells were washed to remove non-adherent cells. After 24 hours of incubation, 20 μl of the supernatant was removed and 20 μl of solutions of test compounds were added 30 min before E. coli O127:B8 LPS (100 ng/ml final concentration). Experiments were run in 3 independent replicates.
(§2) The activity of lactate dehydrogenase (LDH) in a cell culture medium served as a marker of membrane permeability and cell death. Aliquotes of supernatants were taken after 24 h of inoculation with test compounds, mixed with 250 μl of […] NADH solution in 54 mM phosphate buffered saline (pH 7.5). Then, 25 μl of a 6.48 mM pyruvate solution was added to the mixture. The optical density was followed at a wavelength of 340 nm for 20 min. Conversion of optical density into cell viability was carried out according to a standard curve (DMSO-treated cells as 100% and 0.01% Triton X-100-treated cells as 0% viable cells).

For series [3] the test system is unchanged. Briefly: Nitric oxide synthesis (nitrite, Griess reagent) in LPS-stimulated peritoneal macrophages. The class given is cell-based. Particulars: 100 μM. As to the method: as §1
The accumulation of nitrite anion (a stable end product of NO decomposition produced by iNOS) in supernatants was determined using a standard Griess reagent. Briefly, 50 μl of supernatants collected 22 hours after incubation of PM with test and control compounds were mixed with 50 μl of 1% sulfonamide in 2.5% H3PO4 and 50 μl of 0.1% N-(1-naphthyl) ethylenediamine in 2,5% H3PO4. After incubation at 23 °C for 10 min in an orbital shaker, the optical density was determined at a wavelength of 550 nm with a microplate reader Infinite M200 PRO (Tecan, Austria).

Series [4] can be described thus: Cytotoxicity study (LDH activity in the medium) in peritoneal macrophages. Particulars: male, C57BL/6J, mouse, primary peritoneal macrophages; murine peritoneal macrophages, LDH. In kind it is cell-based. As to the method: as §1, §2
Series [5] deals with primary peritoneal macrophages of C57BL/6J mice. Briefly: Interleukin-6 secretion (ELISA) from LPS-stimulated peritoneal macrophages. The class given is cell-based. As for the experimental part:
as §1
(§3) Cell supernatant was collected and centrifuged at 1000 g for 20 min in a 2-16PK Sigma centrifuge (Germany). The concentration of IL-6 was determined by ELISA using a commercial kit (Cloud-clone ELISA kit) with a microplate reader Infinite M200 PRO (Tecan, Austria).

The next series has as its system IL-6 secretion. The description is as above. The class given is cell-based, mice. The note with it: male, C57BL/6J, mouse, primary peritoneal macrophages stimulated with LPS; CC50 versus IC50 of IL-6 secretion; read-out: selectivity of IL-6 inhibition over cytotoxicity. As for the experimental part:
as §1, §3

Another series concerns ICR mice. Briefly: Tail suspension test (antidepressant activity). Particulars: intragastrically 30 min before test, dose equimolar to 2.6 mg/kg amiloride. In kind it is in vivo. As for the experimental part:
The experiment was carried out on 36 male ICR mice weighing 22-25 g, divided into groups of 6 animals each under room lighting (300 lux). […] In experiments, test substances were administered intragastrically 30 min before the start of the test. Experimental groups received test compounds in an equimolar dose to the comparison drug amiloride. Animals of the remaining groups were treated with 2.6 mg/kg amiloride, 10 mg/kg amitriptyline, or 8 mg/kg imipramine. Distilled water was administered to the control group. The time of immobilization of the animals was recorded.

“Also recorded” adds a separate entry of the source.

T1 sequence (P23791 whole entry): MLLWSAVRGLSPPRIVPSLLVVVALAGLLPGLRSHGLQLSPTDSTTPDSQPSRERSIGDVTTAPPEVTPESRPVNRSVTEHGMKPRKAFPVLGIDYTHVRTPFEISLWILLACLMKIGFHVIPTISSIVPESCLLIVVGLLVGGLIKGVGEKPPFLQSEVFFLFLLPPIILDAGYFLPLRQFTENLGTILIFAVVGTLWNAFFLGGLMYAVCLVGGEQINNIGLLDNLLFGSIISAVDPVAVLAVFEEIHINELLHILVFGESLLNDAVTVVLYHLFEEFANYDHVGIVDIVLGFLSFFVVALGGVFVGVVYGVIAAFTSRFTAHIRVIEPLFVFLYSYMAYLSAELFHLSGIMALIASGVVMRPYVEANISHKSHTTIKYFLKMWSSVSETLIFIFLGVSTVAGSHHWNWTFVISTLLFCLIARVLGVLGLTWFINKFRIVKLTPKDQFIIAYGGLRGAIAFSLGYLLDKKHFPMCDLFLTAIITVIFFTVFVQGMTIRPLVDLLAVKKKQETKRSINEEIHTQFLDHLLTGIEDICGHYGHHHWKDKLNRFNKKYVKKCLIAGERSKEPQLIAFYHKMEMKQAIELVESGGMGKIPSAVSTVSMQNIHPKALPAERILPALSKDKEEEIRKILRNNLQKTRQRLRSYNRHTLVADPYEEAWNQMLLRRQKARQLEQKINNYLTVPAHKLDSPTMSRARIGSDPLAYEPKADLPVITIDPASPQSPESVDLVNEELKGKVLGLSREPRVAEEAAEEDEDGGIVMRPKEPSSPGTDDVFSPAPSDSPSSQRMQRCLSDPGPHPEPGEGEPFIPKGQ

Consider `Nc1nc(Cn2cnc3ccc(Br)cc3c2=O)n[nH]1` [Compound 6b, 3-[(5-Amino-1H-1,2,4-triazol-3-yl)methyl]-6-bromoquinazolin-4(3H)-one], for which the IC50 in series [1] was 506 µM. Besides, the “antiplatelet activity versus acetylsalicylic acid” value with rabbit platelets is “exceeded the activity of the reference drug, acetylsalicylic acid”. Besides, the inhibition at 0.01 µM at NHE-1 is 25.8%. Further, the “effect on cell viability” value in series [2] was “absence of a statistically significant effect on cell viability”. In [3], the “inhibition of the synthesis of nitric oxide” value is “statistically significantly inhibit”.
As for `N=C(N)NN` [aminoguanidine, reference compound], in series [1], the IC50 is 4520 µM.
Turning to `Nc1nnc(Cn2c(=O)c3ccccc3n(Cc3ccccc3)c2=O)[nH]1` [Compound 3i, 3-[(5-Amino-4H-1,2,4-triazol-3-yl)methyl]-1-benzylquinazoline-2,4(1H,3H)-dione], the melting point was in the range of 262 to 265 °C. In addition, on NHE-1, the inhibition at 0.01 µM turned out to be 12.9%. In series [4], this compound came in with a CC50 at 24 h of 146 µM. Also, in series [5] (LPS-stimulated macrophages, screening (Fig. 4)), the “secretion of interleukin 6” value is “suppressed”. Besides, the IC50 in [5] (Mus musculus, Peritoneal macrophage, LPS-stimulated murine macrophages, read-out: IC50 of IL-6 synthesis/secretion) was 24.1 µM. Also, the selectivity ratio with IL-6 secretion was 4 to 6. Besides, the antidepressant activity result in the series with ICR mice was “antidepressant activity similar to amiloride; also recorded: antidepressant activity comparable with amiloride”.

By inhibition is commonly meant the percentage by which the read-out fell short of the control. One may read the CC50 as the concentration at which the toxic effect on the cells reaches its halfway point. A higher CC50 goes with lower toxicity to the cells. Broadly, the melting point is the temperature, or range, at which the solid turns liquid.

Values taken from paper PMC8692498, “Synthesis and multifaceted pharmacological activity of novel quinazoline NHE-1 inhibitors” (Scientific Reports, 2021).
